Biological target: KPC-2 (Klebsiella pneumoniae, UniProt Q9F663)
Assay type: biochemical
Conditions: read-out: KM for nitrocefin hydrolysis (used in Morrison fit)
Method: Initial velocities (v₀) were determined by fitting the reaction progress curves by linear regression. These velocities were then plotted against buffer concentrations and analyzed using the Morrison equation to determine the inhibition constant (Ki) ([33]). […] All data analysis and curve fitting were performed using GraphPad Prism (version 10.3.1).

Chain of KPC-2 (Q9F663 25-293 limits assumed): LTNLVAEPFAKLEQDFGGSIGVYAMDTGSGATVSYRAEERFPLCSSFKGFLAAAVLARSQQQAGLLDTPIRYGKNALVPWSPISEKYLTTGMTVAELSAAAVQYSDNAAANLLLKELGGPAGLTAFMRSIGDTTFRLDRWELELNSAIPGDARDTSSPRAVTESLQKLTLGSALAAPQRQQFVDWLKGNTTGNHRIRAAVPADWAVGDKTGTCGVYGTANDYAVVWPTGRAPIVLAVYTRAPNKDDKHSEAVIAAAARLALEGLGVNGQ

## O=C(Cc1cccs1)N[C@@H]1C(=O)N2C(C(=O)O)=C(/C=C/c3ccc([N+](=O)[O-])cc3[N+](=O)[O-])CS[C@H]12 [nitrocefin]
  Km: 45 µM

— article PMC12959137 (Antimicrobial Agents and Chemotherapy, 2026)
